Test results as given in patent US9249115B2, “N,N1 substituted piperazines having combined antiaggregant, anticoagulant and vasodilatory activity, and method for producing same” (Vertex Closed Joint Stock Company, priority 2011, dated 2016).

Key:
[1] = in vivo; cited from earlier work
[2] = system: experimental photothrombosis; experiment: Experimental photothrombosis model, arterial blood velocity; assay type: in vivo, Wistar male rats
Description: The studies were done on Wistar male rats with mass of 230±30 g (laboratory animals nursery “Rappolovo”, RAMS). The animals were kept with unlimited food (standard ration for laboratory rats K-120 by <<Inform-korm>>, Russia) and water allowance. […]
Thrombosis modeling: the drugs were introduced into left femoral vein, in 50 min afterwards 1 ml of Bengal rose A photosensitizer (Acros Organics, USA) solution was introduced with dose of 17 mg/kg [Boselli 2007, Petrischev 2009]. Then the incision of internal surface of animal right thigh about 2 cm in length was made. The section of the femoral vein about 5 mm in length was released from surrounding tissues and separated from neurovascular bundle. Beneath this section of the vein the black non-transparent plastic strip 3 mm in width was laid to screen off the vein and surrounding tissues from radiation. The irradiation was done using diode laser <<DPSS-laser>> (Diode Pumped Solid State Laser, South Korea) with 532 nm wavelength and 60 mW power. The area of irradiation was 1 mm^2, exposing time was 40 min. The blood flow in femoral artery was measured by high frequency Doppler ultrasonography method (<<Minimax-Doppler-K>> apparatus, frequency of sensor was 20 MHz). The blood velocity alteration due to irradiation was measured (Table 9).

mesentery arterioles = experiment: Vasodilator properties, microcirculatory vessel responsiveness to noradrenalin, arterioles; assay type: in vivo, Wistar male rats
Description: (§1) Vasodilator properties of N,N′-substituted piperazines were evaluated according to their influence on microcirculatory vessel responsiveness.
(§2) The studies were done on Wistar male rats with mass of 300±30 g (laboratory animals nursery “Rappolovo”, RAMS). The animals were kept with unlimited food (standard ration for laboratory rats K-120 by <<Inform-korm>>, Russia) and water allowance.
(§3) The solutions of N,N′-substituted piperazines and physiological (control) solution were introduced via bolus injection within 1 min into caudal vein of non-anaesthetized animals according to the dosage of 5.0 ml per 1 kg. Immediately after the introduction the animals were put in separate standard cages for observation.
(§4) In 30 min after the injection the animals were anaesthetized (thiopental sodium, 60 mg/kg intraperitoneally). The loop of small intestine adjoined to mesoappendix was retrieved through inferomedian incision. To study microcirculation in mesentery venules and arterioles in transmitted light the rat was placed on thermostated microscope objective table. The application of noradrenalin solution (Aguettant, 2 mg/ml, Laboratoire AGUETTANT, France) was done directly on the mesentery (Furness J. B., Marshall J. M., 1974; Yantareva L. I., 2004).
(§5) The study of microcirculatory vessels was done with LUMAM I1 microscope (LOMO, Russia). The recording of video data was done with the camera (Optics and Electronics ISTA Ltd) attached to a personal computer. The processing of data was done with Video-Test 4.0 software (ISTA Ltd., Russia). The diameter of the vessel wall (D, m) before and after the application of noradrenalin and the starting time of blood flow slowdown induced by noradrenalin were measured (the measurements were done for 1 min after the application).

mesentery venules = experiment: Vasodilator properties, microcirculatory vessel responsiveness to noradrenalin, venules; assay type: in vivo, Wistar male rats
Description: as §1, §2, §3, §4, §5

[3] = 0.01 mmol/kg, noradrenalin 10^−6 g/ml
[4] = 0.025 mmol/kg, noradrenalin 10^−7 g/ml

Compound | dermal reactions that lead to treatment cessation [1] | gastrointestinal reactions that lead to treatment cessation [1] | V, cm/s (arterial blood velocity) ([2]; 0.01 mmol/kg, 0 min of irradiation) [cm/s] | V, cm/s (arterial blood velocity) ([2]; 0.01 mmol/kg, 10 min of irradiation) [cm/s] | V, cm/s (arterial blood velocity) ([2]; 0.01 mmol/kg, 20 min of irradiation) [cm/s] | V, cm/s (arterial blood velocity) ([2]; 0.01 mmol/kg, 30 min of irradiation) [cm/s] | V, cm/s (arterial blood velocity) ([2]; 0.01 mmol/kg, 40 min of irradiation) [cm/s] | V, cm/s (arterial blood velocity) ([2]; 0.025 mmol/kg, 0 min of irradiation) [cm/s] | V, cm/s (arterial blood velocity) ([2]; 0.025 mmol/kg, 10 min of irradiation) [cm/s] | V, cm/s (arterial blood velocity) ([2]; 0.025 mmol/kg, 20 min of irradiation) [cm/s] | V, cm/s (arterial blood velocity) ([2]; 0.025 mmol/kg, 30 min of irradiation) [cm/s] | V, cm/s (arterial blood velocity) ([2]; 0.025 mmol/kg, 40 min of irradiation) [cm/s] | % of vessel constriction (mesentery arterioles; [3]) [%] | Blood flow slowdown, Latent period of slowdown (mesentery arterioles; [3]) [s] | % of vessel constriction (mesentery arterioles; [4]) [%] | % of vessel constriction (mesentery venules; [3]) [%] | Blood flow slowdown, Latent period of slowdown (mesentery venules; [3]) [s] | % of vessel constriction (mesentery venules; [4]) [%]
Clc1ccccc1CN1CCc2sccc2C1 [ticlopidine] | 4-15% | up to 20% | – | – | – | – | – | – | – | – | – | – | – | – | – | – | – | –
COc1ccc(CN2CCN(CC(CS(=O)(=O)[O-])OS(=O)(=O)[O-])CC2)c(OC)c1OC.[Na+].[Na+] (stereo not drawn) [Example 14, 2-sulfooxy-3-(4-((2,3,4-trimethoxyphenyl)-methyl)piperazine-1-yl)propane-1-sulfonic acid disodium salt monohydrate] | – | – | 6.9 ± 3.2 | 7.00 ± 2.0 | 6.8 ± 2.0 | 6.9 ± 1.3 | 6.6 ± 1.4 | 8.3 ± 1.8 | 8.1 ± 1.3 | 8.3 ± 2.0 | 8.0 ± 1.3 | 8.2 ± 1.2 | 58 | 43 ± 4 | 28 | 33 | 41 ± 6 | 22
